From patent US6881741B2 (ViroChem Pharma Inc., priority 2001, dated 2005)
Read-outs that look alike come from different tables or passages of the source.

Molecular target: recombinant HCV NS5B (HCV RNA-dependent RNA polymerase) (Hepatitis C virus genotype 1b, UniProt P26663)
Test: biochemical
[1] = related polymerase activity (Example 27 list), read-out: IC50
[2] = HCV polymerase activity, list of compounds of Example 27, read-out: IC50 (polymerase activity)

Sequence of recombinant HCV NS5B (HCV RNA-dependent RNA polymerase) (P26663 2420-3010 limits assumed): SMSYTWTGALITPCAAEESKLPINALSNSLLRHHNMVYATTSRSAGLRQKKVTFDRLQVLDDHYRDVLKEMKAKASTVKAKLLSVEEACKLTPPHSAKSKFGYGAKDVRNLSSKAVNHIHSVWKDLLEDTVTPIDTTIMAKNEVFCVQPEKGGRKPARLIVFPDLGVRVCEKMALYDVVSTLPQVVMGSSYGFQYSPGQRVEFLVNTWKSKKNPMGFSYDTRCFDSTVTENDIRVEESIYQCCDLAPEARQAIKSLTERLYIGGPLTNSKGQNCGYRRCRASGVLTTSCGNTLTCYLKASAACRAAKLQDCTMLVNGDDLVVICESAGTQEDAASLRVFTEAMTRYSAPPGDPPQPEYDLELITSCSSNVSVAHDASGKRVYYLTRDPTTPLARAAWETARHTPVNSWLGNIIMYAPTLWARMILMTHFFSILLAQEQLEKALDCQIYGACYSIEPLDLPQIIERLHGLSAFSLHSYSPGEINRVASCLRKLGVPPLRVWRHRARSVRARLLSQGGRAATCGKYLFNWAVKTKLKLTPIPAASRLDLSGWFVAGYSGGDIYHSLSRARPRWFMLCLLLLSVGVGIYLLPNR

Row | SMILES | IC50 [1] | IC50 [2]
1 | Cc1ccc(C(=O)N(C)c2cc(-c3ccccc3)sc2C(=O)O)c(C)c1 [Compound 131, 3-[(2,4-DIMETHYL-BENZOYL)-METHYL-AMINO]-5-PHENYL-THIOPHENE-2 CARBOXYLIC ACID] | < 5 µM | 
2 | Cc1ccccc1S(=O)(=O)Nc1cc(-c2ccc(C(F)(F)F)cc2)sc1C(=O)O [Compound 88, 3-(TOLUENE-2-SULFONYLAMINO)-5-(4-TRIFLUOROMETHYL-PHENYL)-THIOPHENE-2-CARBOXYLIC ACID] | < 5 µM | 
3 | O=C(NC1CCC(N(C(=O)c2ccc(Cl)cc2Cl)c2cc(-c3ccccc3)sc2C(=O)O)CC1)OCc1ccccc1 (stereo not shown) [Compound 515, 3-[(4-BENZYLOXYCARBONYLAMINO- CYCLOHEXYL)-(2,4-DICHLORO- BENZOYL)-AMINO]-5-PHENYL- THIOPHENE-2-CARBOXYLIC ACID] |  | < 5 µM
4 | CC(=O)c1ccc(-c2cc(N(C(=O)c3ccc(Cl)cc3Cl)C(C)C)c(C(=O)O)s2)cc1 [Compound 355, 5-(4-ACETYL-PHENYL)-3-[)2,4-DICHLORO- BENZOYL)-ISOPROPYL-AMINO]- THIOPHENE-2-CARBOXYLIC ACID] | < 5 µM | 
5 | COc1cc(C)c(S(=O)(=O)N2CC(C)=CCC2C(=O)N(c2cc(-c3ccccc3)sc2C(=O)O)C(C)C)c(C)c1C (stereo not shown) [Compound 541, 3-(ISOPROPYL-[1-(4-METHOXY-2,3,6- TRIMETHYL-BENZENESULFONYL)-5- METHYL-1,2,3,6-TETRAHYDRO- PYRIDINE-2-CARBONYL]-AMINO)-5- PHENYL-THIOPHENE-2-CARBOXYLIC ACID] |  | 5 to 20 µM
6 | O=C(O)c1sc(-c2ccccc2)cc1N(C(=O)c1ccc(Cl)cc1Cl)C1CCCNC1 (stereo not shown) [Compound 514, 3-[(2,4-DICHLORO-BENZOYL)-PIPERIDIN- 3-YL-AMINO]-5-PHENYL-THIOPHENE-2- CARBOXYLIC ACID; COMPOUND WITH GENERIC INORGANIC NEUTRAL COMPONENT] |  | < 5 µM
7 | O=C(O)c1sc(-c2ccccc2)cc1NS(=O)(=O)c1ccccc1C(F)(F)F [Compound 35, 5-PHENYL-3-(2-TRIFLUOROMETHYL-BENZENESULFONYLAMINO)-THIOPHENE-2-CARBOXYLIC ACID] | > 20 µM | 
8 | CC1CCC(C(=O)N(c2cc(-c3cccc(C(F)(F)F)c3)sc2C(=O)O)C(C)C)CC1 (stereo not shown) [Compound 381, 3-[ISOPROPYL-(4-METHYL- CYCLOHEXANECARBONYL)-AMINO]-5-(3- TRIFLUOROMETHYL-PHENYL)- THIOPHENE-2-CARBOXYLIC ACID] | < 5 µM | 
9 | CC(C)N(C(=O)C1CCC(Cl)CC1)c1cc(-c2ccccc2)sc1C(=O)O (stereo not shown) [Compound 532, 3-[(4-CHLORO- CYCLOHEXANECARBONYL)-ISOPROPYL- AMINO]-5-PHENYL-THIOPHENE-2- CARBOXYLIC ACID] |  | < 5 µM
10 | O=C(O)c1sc(-c2ccccc2)cc1NS(=O)(=O)c1ccccc1Cl [Compound 29, 3-(2-CHLORO-BENZENESULFONYLAMINO)-5-PHENYL-THIOPHENE-2-CARBOXYLIC ACID] | 5 to 20 µM | 
11 | Cc1ccc(C(=O)N(c2cc(-c3cccc(C(F)(F)F)c3)sc2C(=O)O)C(C)C)c(O)c1 [Compound 428, 3-[(2-HYDROXY-4-METHYL-BENZOYL)- ISOPROPYL-AMINO]-5-(3- TRIFLUOROMETHYL-PHENYL)- THIOPHENE-2-CARBOXYLIC ACID] |  | 5 to 20 µM
12 | Cc1cc(F)ccc1S(=O)(=O)Nc1cc(-c2ccccc2)sc1C(=O)O [Compound 370, 3-(4-FLUORO-2-METHYL- BENZENESULFONYLAMINO)-5-PHENYL- THIOPHENE-2-CARBOXYLIC ACID] | 5 to 20 µM | 
13 | C=CCN(C(=O)Cc1ccc(Cl)c(Cl)c1)c1cc(-c2ccccc2)sc1C(=O)O [Compound 350, 3-{ALLYL-[2-(3,4-DICHLORO-PHENYL)- ACETYL]-AMINO}-5-PHENYL-THIOPHENE- 2-CARBOXYLIC ACID] | 5 to 20 µM | 
14 | CCOC(=O)c1cccc(-c2cc(NS(=O)(=O)c3ccccc3C)c(C(=O)O)s2)c1 [Compound 121, 5-(3-ETHOXYCARBONYL-PHENYL)-3-(TOLUENE-2-SULFONYLAMINO)-THIOPHENE-2-CARBOXYLIC ACID] | 5 to 20 µM | 
15 | O=C(O)c1sc(-c2ccccc2)cc1NS(=O)(=O)c1c(Cl)cccc1Cl [Compound 44, 3-(2,6-DICHLORO-BENZENESULFONYLAMINO)-5-PHENYL-THIOPHENE-2-CARBOXYLIC ACID] | < 5 µM | 
16 | O=C(O)c1sc(-c2ccccc2)cc1NCc1ccc(Cl)cc1Cl [Compound 48, 3-(2,4-DICHLORO-BENZYLAMINO)-5-PHENYL-THIOPHENE-2-CARBOXYLIC ACID] | < 5 µM | 
17 | CCCC(=O)N(C)c1cc(-c2ccccc2)sc1C(=O)O [Compound 385, 3-(BUTYRYL-METHYL-AMINO)-5-PHENYL- THIOPHENE-2-CARBOXYLIC ACID] | 5 to 20 µM | 
18 | Cc1noc(C)c1S(=O)(=O)Nc1cc(-c2ccccc2)sc1C(=O)O [Compound 94, 3-(3,5-DIMETHYL-ISOXAZOLE-4-SULFONYLAMINO)-5-PHENYL-THIOPHENE-2-CARBOXYLIC ACID] | 5 to 20 µM | 
19 | Cc1ccc(C(=O)N(c2cc(-c3ccccc3)sc2C(=O)O)C(C)C)c(C)c1 [Compound 262, 3-[(2,4-DIMETHYL-BENZOYL)-ISOPROPYL-AMINO]-5-PHENYL-THIOPHENE-2-CARBOXYLIC ACID] | < 5 µM | 
20 | Cc1ccccc1S(=O)(=O)Nc1cc(/C=C/c2ccc(Cl)cc2)sc1C(=O)O [Compound 134, 5-[2-(4-CHLORO-PHENYL)-VINYL]-3-(TOLUENE-2-SULFONYLAMINO)-THIOPHENE-2-CARBOXYLIC ACID] | 5 to 20 µM | 

Row | SMILES | IC50 [1] | IC50 [2]
21 | Cc1ccccc1S(=O)(=O)Nc1cc(Br)sc1C(=O)O [Compound 552, 5-BROMO-3-(TOLUENE-2- SULFONYLAMINO)-THIOPHENE-2- CARBOXYLIC ACID] |  | 5 to 20 µM
22 | CC(=O)c1ccc(-c2cc(NS(=O)(=O)c3ccc(C)cc3)c(C(=O)O)s2)cc1 [Compound 237, 5-(4-ACETYL-PHENYL)-3-(TOLUENE-4-SULFONYLAMINO)-THIOPHENE-2-CARBOXYLIC ACID] | < 5 µM | 
23 | COCC(=O)N(Cc1ccc(F)cc1F)c1cc(-c2ccccc2)sc1C(=O)O [Compound 484, 3-[(2,4-DIFLUORO-BENZYL)-(2-METHOXY- ACETYL)-AMINO]-5-PHENYL-THIOPHENE- 2-CARBOXYLIC ACID] |  | 5 to 20 µM
24 | C=CCN(C(=O)CC1CCCC1)c1cc(-c2ccccc2)sc1C(=O)O [Compound 401, 3-[ALLYL-(2-CYCLOPENTYL-ACETYL)- AMINO]-5-PHENYL-THIOPHENE-2- CARBOXYLIC ACID] |  | < 5 µM
25 | C=Cc1cc(NS(=O)(=O)c2ccccc2C)c(C(=O)O)s1 [Compound 71, 3-(TOLUENE-2-SULFONYLAMINO)-5-VINYL-THIOPHENE-2-CARBOXYLIC ACID] | 5 to 20 µM | 
26 | CC(C)CN(C(=O)c1ccc(Cl)cc1Cl)c1cc(-c2ccccc2)sc1C(=O)O [Compound 204, 3-[(2,4-DICHLORO-BENZOYL)-ISOBUTYL-AMINO]-5-PHENYL-THIOPHENE-2-CARBOXYLIC ACID] | < 5 µM | 
27 | N#Cc1ccc(-c2cc(NS(=O)(=O)c3ccc(Cl)cc3)c(C(=O)O)s2)cc1 [Compound 289, 3-(4-CHLORO-BENZENESULFONYLAMINO)-5-(4-CYANO-PHENYL)-THIOPHENE-2-CARBOXYLIC ACID] | < 5 µM | 
28 | CC(c1ccccc1)N(C(=O)c1ccc(Cl)cc1Cl)c1cc(-c2ccccc2)sc1C(=O)O (stereo not shown) [Compound 264, 3-[(2,4-DICHLORO-BENZOYL)-(1-PHENYL-ETHYL)-AMINO]-5-PHENYL-THIOPHENE-2-CARBOXYLIC ACID] | < 5 µM | 
29 | Cc1ccc(C(=O)N(C)c2cc(-c3ccccc3)sc2C(=O)O)cc1 [Compound 93, 3-[METHYL-(4-METHYL-BENZOYL)-AMINO]-5-PHENYL-THIOPHENE-2-CARBOXYLIC ACID] | < 5 µM | 
30 | Cc1ccc(S(=O)(=O)Nc2cc(-c3ccc(C(N)=O)cc3)sc2C(=O)O)cc1 [Compound 259, 5-(4-CARBAMOYL-PHENYL)-3-(TOLUENE-4-SULFONYLAMINO)-THIOPHENE-2-CARBOXYLIC ACID] | < 5 µM | 
31 | C=CCN(C(=O)CCC(C)C)c1cc(-c2ccccc2)sc1C(=O)O [Compound 400, 3-[ALLYL-(4-METHYL-PENTANOYL)- AMINO]-5-PHENYL-THIOPHENE-2- CARBOXYLIC ACID] |  | 5 to 20 µM
32 | CC(=O)N(Cc1ccc(C(F)(F)F)cc1)c1cc(-c2ccccc2)sc1C(=O)O [Compound 464, 3-[ACETYL-(4-TRIFLUOROMETHYL- BENZYL)-AMINO]-5-PHENYL-THIOPHENE- 2-CARBOXYLIC ACID] |  | 5 to 20 µM
33 | COc1cc(C)c(S(=O)(=O)Nc2cc(-c3ccccc3)sc2C(=O)O)c(C)c1C [Compound 22, 3-(4-METHOXY-2,3,6-TRIMETHYL-BENZENESULFONYLAMINO)-5-PHENYL-THIOPHENE-2-CARBOXYLIC ACID] | < 5 µM | 
34 | CN(C(=O)Cc1ccc(F)cc1)c1cc(-c2ccccc2)sc1C(=O)O [Compound 173, 3-{[2-(4-FLUORO-PHENYL)-ACETYL]-METHYL-AMINO}-5-PHENYL-THIOPHENE-2-CARBOXYLIC ACID] | < 5 µM | 
35 | Cc1ccccc1S(=O)(=O)Nc1cc(-c2cccc(O)c2)sc1C(=O)O [Compound 171, 5-(3-HYDROXY-PHENYL)-3-(TOLUENE-2-SULFONYLAMINO)-THIOPHENE-2-CARBOXYLIC ACID] | < 5 µM | 
36 | Cc1ccccc1S(=O)(=O)Nc1cc(-c2ccccc2C(F)(F)F)sc1C(=O)O [Compound 106, 3-(TOLUENE-2-SULFONYLAMINO)-5-(2-TRIFLUOROMETHYL-PHENYL)-THIOPHENE-2-CARBOXYLIC ACID] | 5 to 20 µM | 
37 | O=C(O)c1sc(-c2ccccc2)cc1NS(=O)(=O)c1cccc(Br)c1 [Compound 42, 3-(3-BROMO-BENZENESULFONYLAMINO)-5-PHENYL-THIOPHENE-2-CARBOXYLIC ACID] | 5 to 20 µM | 
38 | CCOC(=O)c1c(S(=O)(=O)Nc2cc(-c3ccccc3)sc2C(=O)O)c(-c2ccccc2)n(-c2ccccc2)c1C [Compound 155, 4-(2-CARBOXY-5-PHENYL-THIOPHEN-3-YLSULFAMOYL)-2-METHYL-1,5-DIPHENYL-1H-PYRROLE-3-CARBOXYLIC ACID ETHYL ESTER] | < 5 µM | 
39 | C#Cc1cc(NS(=O)(=O)c2ccccc2C)c(C(=O)O)s1 [Compound 80, 5-ETHYNYL-3-(TOLUENE-2-SULFONYLAMINO)-THIOPHENE-2-CARBOXYLIC ACID] | 5 to 20 µM | 
40 | CC(C)(C)N(C(=O)c1ccc(Cl)cc1Cl)c1cc(-c2ccccc2)sc1C(=O)O [Compound 327, 3-[#TERT!-BUTYL-(2,4-DICHLORO- BENZOYL)-AMINO]-5-PHENYL- THIOPHENE-2-CARBOXYLIC ACID] | < 5 µM | 
